Assay results as given in patent EP4692079A1, “CYP11A1 INHIBITOR AND USE THEREOF” (priority 2023, dated 2024).
Read-outs that look alike come from different tables or passages of the source.

Columns and labels:
[1] = Pharmacokinetic test in mice; type: in vivo; conditions: mouse, male ICR mice, plasma; for Vd: read-out: Vdss
Description: 4.1. Experimental animals: Male ICR mice, 20-25 g, 6 mice/compound, were purchased from Chengdu Dossy Experimental Animals Co., Ltd.
4.2 Experimental design: on the day of the experiment, the ICR mice were randomly grouped according to their body weights. […] Table 6 Administration information
Before and after administration, 0.06 mL of blood was taken from the orbit under isoflurane anaesthesia and placed in an EDTAK2 centrifuge tube. The tube was centrifuged at 5000 rpm at 4°C for 10 min, and plasma was collected. […] Before analysis and detection, all samples were stored at -80°C, and the samples were quantitatively analysed by LC-MS/MS.

[2] = system: pregnenolone level in NCI-H295R cells; assay: cells; type: cell-based; conditions: Homo sapiens, 72 h; for IC50: read-out: Pregnenolone level in H295R (Elisa) IC50 nM; for inhibition at 0.1 µM: read-out: Pregnenolone level in H295R (Elisa) inh.% 100 nM; for inhibition at 1 µM: read-out: Pregnenolone level in H295R (Elisa) inh.% 1000 nM
Description: 2. The purpose of the experimental study was intended to detect the pregnenolone level in the NCI-H295R cells by adopting the Enzyme linked immunosorbent assay (ELISA), so as to evaluate the inhibitory effects of the compounds on the pregnenolone level in the NCI-H295R cells.
The H295R cells were purchased from ATCC (CRL-2128), the cell complete medium contained DMEM: F12+ 10% FBS +0.00625 mg/ml insulin+0.00625 mg/mL transferrin+6.25 ng/mL selenium+1.25 mg/mL BSA+0.00535 mg/mL linoleic acid, and the cells were cultured in a 37°C, 5% CO2 incubator. The cells in the exponential growth phase were collected, and cultured in a cytokine-free medium (phenol red 1640-free +1% PS+10% css FBS+1.25 mg/mL BSA +0.00625 mg/mL insulin+0.00625 mg/mL transferrin+6.25 ng/mL selenium+0.00535 mg/mL linoleic acid) for three days. The cells in the exponential growth phase were collected on the third day. The cell suspension was adjusted with a cytokine-free medium to a corresponding concentration and plated at 60000 cells/well, with the volume being 90 µL/well. Subsequently, 10 µL of the compounds at different concentrations was added and the plate was incubated in a CO2 incubator for three days. After the incubation was completed, the cell culture supernatant was collected and centrifuged at 2°C-8°C at 800×g for 10 min. The resulting supernatant was collected. Determination was carried out according to the operation instructions for pregnenolone Elisa kit (Antibodies-A73791), and the OD450 signal was read.
2.1 Standard curve plotting. The standard concentration was taken as the abscissa and the OD450 value as the ordinate, the coordinate points of various standards were connected with a smooth line and a curve was fitted according to the four parameter logistic (4-PL) method.
2.2 Sample quantification: The corresponding concentration (CONC) of testosterone/pregnenolone in the sample was calculated using the absorbance value of the sample and the standard curve. According to formula (1), the inhibition rate of the compound at various concentrations was calculated, and S-shaped concentration curves were plotted and the IC50 values (i.e., concentration of the compound at which the inhibition rate was 50%) were calculated using a three parameter non-linear regression model in Graphpad Prim 8.0 software. CONC cpd was the concentration of the treated group, and CONC ctrl was the average concentration value of the solvent control group. Inhibition rate% = 100%−CONCcpd /CONCctrl × 100% [formula] Table 3 Inhibitory effects of compounds on pregnenolone level in NCI-H295R cells

[3] = system: testosterone level in NCI-H295R cells; assay: cells; type: cell-based; conditions: Homo sapiens, NCI-H295R, 72 h; for IC50: read-out: Testosterone level in H295R (Elisa) IC50 nM
Description: The purpose of the experimental study was intended to detect the testosterone level in the NCI-H295R cells by adopting the Enzyme linked immunosorbent assay (ELISA), so as to evaluate the inhibitory effects of the compounds on the testosterone level in the NCI-H295R cells.
The H295R cells were purchased from ATCC, the cell complete medium contained DMEM: F12+ 10% FBS +0.00625 mg/ml insulin +0.00625 mg/ml transferrin+6.25 ng/ml selenium +1.25 mg/ml BSA+0.00535 mg/ml linoleic acid, and the cells were cultured in a 37°C, 5% CO2 incubator. The cells in the exponential growth phase were collected, and cultured in a cytokine-free medium (phenol red 1640-free +1% PS+10% css FBS+1.25 mg/ml BSA +0.00625 mg/ml insulin + 0.00625 mg/ml transferrin+6.25 ng/ml selenium+0.00535 mg/ml linoleic acid) for three days. The cells in the exponential growth phase were collected on the third day. The cell suspension was adjusted with a cytokine-free medium to a corresponding concentration and plated at 60000 cells/well, with the volume being 90 µL/well. Subsequently, 10 µL of the compounds at different concentrations was added and the plate was incubated in a CO2 incubator for three days. After the incubation was completed, according to the operation instructions for testosterone Elisa kit (Beyotime, PT872), 50 µL of the cell culture supernatant was collected from each well and centrifuged at 500 g for 5 min at room temperature and then the resulting supernatant was collected. The samples were added to the corresponding wells at 25 µl/well, and then formulated horseradish peroxidase labelled testosterone was added at 75 µl/well. The mixture was fully mixed for 10 seconds. The reaction wells were sealed with a plate-sealing film (white) and the mixture was incubated at room temperature in the dark for 120 min. The plate was washed three times with a volume of 300 µl per well, and then placed onto thick absorbent paper and dried. Chromogenic reagent TMB solution was added at 100 µl/well. The reaction wells were sealed with a plate-sealing film (white) and the mixture was incubated at room temperature in the dark for 15-20 min. Subsequently, a termination solution was added at 50 µl/well, and after the mixture was fully mixed, the absorbance value OD450 was immediately measured. The absorbance readings were processed using Graphpad Prim 8.0 software and S-shaped concentration curves were plotted and the IC50 values were calculated using a four-parameter non-linear regression model.

[4] = Pharmacokinetic test in rats; type: in vivo; conditions: rat, male SD rats, plasma; for Vd: read-out: Vdss
Description: 3.1 Experimental animals: Male SD rats (about 220 g, 6-8 weeks old, 6 rats/compound) were purchased from Chengdu Dossy Experimental Animals Co., Ltd.
3.2 Experimental design: On the day of the experiment, the SD rats were randomly grouped by body weight. […] Table 4 Administration information
Before and after the administration, 0.1 ml of blood was taken from the orbit of the animals under isoflurane anaesthesia and placed in an EDTAK2 centrifuge tube. The blood was centrifuged at 5000 rpm and 4°C for 10 min to collect plasma. […] Before analysis and detection, all samples were stored at -80°C. Table 5 Pharmacokinetic parameters of test compounds in plasma of rats

[5] = po, intragastric administration (10 mg/kg)
[6] = intravenous administration (2.5 mg/kg)
[7] = read-out: Testosterone level in H295R (Elisa) inh.% 100 nM, 100 nM compound, NCI-H295R cells, three days incubation
[8] = read-out: Testosterone level in H295R (Elisa) inh.% 1000 nM, 1000 nM compound, NCI-H295R cells, three days incubation
[9] = read-out: Testosterone level in H295R (Elisa) inh.% 100 nM
[10] = read-out: Testosterone level in H295R (Elisa) inh.% 1000 nM

Row | Compound | AUC(0-t) [1, 5] [ng·h/mL] | half-life [1, 5] [h] | AUC(0-t) [1, 6] [ng·h/mL] | clearance [1, 6] [mL/min/kg] | half-life [1, 6] [h] | Vd [1, 6] [L/kg] | IC50 [2] [nM] | inhibition at 0.1 µM [2] [%] | inhibition at 1 µM [2] [%] | inhibition at 0.1 µM [3, 7] [%] | inhibition at 1 µM [3, 8] [%] | AUC(0-t) [4, 5] [ng·h/mL] | half-life [4, 5] [h] | AUC(0-t) [4, 6] [ng·h/mL] | clearance [4, 6] [mL/min/kg] | half-life [4, 6] [h] | Vd [4, 6] [L/kg] | IC50 [3] [nM] | inhibition at 0.1 µM [3, 9] [%] | inhibition at 1 µM [3, 10] [%]
1 | CS(=O)(=O)N1CC(OC(=O)N2CCC(COc3coc(CN4Cc5ccc(C(F)(F)F)cc5C4)cc3=O)CC2)C1 [Compound 17] | 17800 | 2.42 | 4790 | 8.73 | 2.96 | 1.81 | 773 | 64.9 | 75.2 | 91.6 | 93.6 | 5240 | 2.72 | 1680 | 24.4 | 1.59 | 2.53 | – | – | –
2 | [2H]C([2H])([2H])n1cc(C(=O)N[C@H]2CC[C@H](CCc3coc(CN4Cc5ccc(C(F)(F)F)cc5C4)cc3=O)CC2)cn1 [Compound 118] | 28000 | 3.45 | 7980 | 5.22 | 2.78 | 0.966 | 71 | – | – | – | – | 11400 | 4.41 | 5200 | 8.18 | 1.58 | 0.755 | 36 | 70 | 83
3 | O=C(N[C@H]1CC[C@H](/C=C/c2coc(CN3Cc4ccc(C(F)(F)F)cc4C3)cc2=O)CC1)C1CC(F)(F)C1 [Compound 88] | 23600 | 4.48 | 8550 | 4.82 | 4.49 | 1.54 | 94 | 41.6 | 64.5 | – | – | – | – | – | – | – | – | 59 | 76 | 86
4 | O=C(N[C@H]1CC[C@H](/C=C/c2coc(CN3Cc4ccc(C(F)(F)F)cc4C3)cc2=O)CC1)C1CC1 [Compound 61] | 32100 | 3.47 | 6080 | 6.8 | 3.73 | 1.75 | 370 | – | – | – | – | 17400 | 3.03 | 5590 | 7.49 | 2.58 | 1.42 | 162 | 71 | 79
5 | [2H]C([2H])([2H])n1cc(C(=O)N[C@H]2CC[C@H](/C=C/c3coc(CN4Cc5ccc(C(F)(F)F)cc5C4)cc3=O)CC2)cn1 [Compound 81] | 68500 | 5.38 | 22600 | 1.69 | 6.99 | 0.86 | 146 | – | – | – | – | 40500 | 4.29 | 12900 | 3.22 | 3.18 | 0.704 | 102 | 63 | 83
6 | O=C(N[C@H]1CC[C@H](COc2coc(CN3Cc4ccc(C(F)(F)F)cc4C3)cc2=O)CC1)C1CC1 [Compound 15] | 25400 | 3.19 | 6700 | 6.21 | 3.54 | 1.61 | 382 | – | – | 51 | 84.2 | – | – | – | – | – | – | 13 | – | –
7 | O=C(N[C@H]1CC[C@H](/C=C/c2coc(CN3Cc4ccc(C(F)(F)F)cc4C3)cc2=O)CC1)[C@@H]1CC1(F)F [Compound 89] | 52500 | 8.11 | 8460 | 4.9 | 5.1 | 1.63 | – | 41.6 | 64.9 | – | – | – | – | – | – | – | – | – | 75 | 87
